Assay results published in EP0075104A2, “Cephalosporin derivatives, process for their preparation, pharmaceutical compositions containing them and intermediates” (F. HOFFMANN-LA ROCHE & CO. Aktiengesellschaft, priority 1981, dated 1983).

Assays:
Klebsiella pneumoniae = test: Oral curative dose (CD50) in infected mice, Klebsiella pneumoniae; assay type: in vivo; conditions: Maus, p.o., Erreger Klebsiella pneumoniae, dose at which 50% of the tested mice survive
From the text: (§1) Die orale antimikrobielle Wirksamkeit der erwähnten Produkte kann anhand von in-vivo-Versuchen an der Maus nachgewiesen werden. Im nachstehenden bedeutet die kurative Dosis (CD50, p.o., mg/kg) diejenige perorale Dosis, bei der 50% der getesteten Mäuse überleben.
(§2) Ergebnis (CD50, p.o. mg/kg)

Serratia marcescens = test: Oral curative dose (CD50) in infected mice, Serratia marcescens; assay type: in vivo; conditions: Maus, p.o., Erreger Serratia marcescens, dose at which 50% of the tested mice survive
From the text: as §1, §2

in vivo = conditions: mouse, po
Streptococcus pyogenes = test: Oral curative dose (CD50) in infected mice, Streptococcus pyogenes; assay type: in vivo; conditions: Maus, p.o., Erreger Streptococcus pyogenes, dose at which 50% of the tested mice survive
From the text: as §1, §2

Escherichia coli = test: Oral curative dose (CD50) in infected mice, Escherichia coli; assay type: in vivo; conditions: Maus, p.o., Erreger Escherichia coli, dose at which 50% of the tested mice survive
From the text: as §1, §2

Row | SMILES | ED50 (Klebsiella pneumoniae) [mg/kg] | ED50 (Serratia marcescens) [mg/kg] | LD50 at 24 h (in vivo) [mg/kg] | ED50 (Streptococcus pyogenes) [mg/kg] | ED50 (Escherichia coli) [mg/kg]
1 | C=CCn1c(SCC2=C(C(=O)OCOC(=O)C(C)(C)C)N3C(=O)[C@@H](NC(=O)/C(=N\OC)c4csc(N)n4)[C@H]3SC2)nnc1C(=O)OC [Produkt D] | > 12 | 3.6 | > 5000 | 1.3 | 0.11
2 | CCCCn1c(SCC2=C(C(=O)OCOC(=O)C(C)(C)C)N3C(=O)[C@@H](NC(=O)/C(=N\OC)c4csc(N)n4)[C@H]3SC2)nnc1C(=O)OC [Produkt E, Methylen-(6R,7R)-[(Z)-(2-Amino-4-thiazolyl)-2-(methoxyimino)-acetamido]-3-[[[4-(n-butyl)-5-(methoxycarbonyl)-4H-1,2,4-triazol-3-yl]-thio]methyl]-8-oxo-5-thia-1-azabicyclo[4.2.0]-oct-2-en-2-carboxylat-pivalat] | > 12 | 37 |  | 3.5 | 1.1
3 | CO/N=C(\C(=O)N[C@@H]1C(=O)N2C(C(=O)OCOC(=O)C(C)(C)C)=C(CSc3nnc(C(=O)OC)n3C)CS[C@H]12)c1csc(N)n1 [Produkt A, Methylen-(6R,7R)-7-[(Z)-2-(2-Amino-4-thiazolyl)-2-(methoxyimino)-acetamido]-3-[[[5-(methoxycarbonyl)-4-methyl-4H-1,2,4-triazol-3-yl]thio]methyl]-8-oxo-5-thia-l-azabicyclo-[4.2.0]oct-2-en-2-carboxylat-pivalat] | 4.4 |  | > 5000 | 1.8 | 0.11
4 | CO/N=C(\C(=O)N[C@@H]1C(=O)N2C(C(=O)OCOC(=O)C(C)(C)C)=C(CSc3nc(C(=O)OC)n(-c4ccccc4)n3)CS[C@H]12)c1csc(N)n1 [Produkt C, Methylen-(6R,7R)-7-[(Z)-2-(2-Amino-4-thiazolyl)-2-(methoxyimino)-acetamido]3-[[[5-(methoxycarbonyl)-1-phenyl-lH-1,2,4-triazol-3-yl]thio]methyl]-8-oxo-5-thia-1-azabicyclo-[4.2.0]oct-2-en-2-carboxylat-pivalat] | > 12 | > 25 | > 5000 | 2.4 | 1.8
5 | CO/N=C(\C(=O)N[C@@H]1C(=O)N2C(C(=O)OCOC(=O)C(C)(C)C)=C(CSc3nc(C(=O)OC)n(C(C(=O)OCOC(=O)C(C)(C)C)c4ccccc4)n3)CS[C@H]12)c1csc(N)n1 (stereo partly drawn) [Produkt B, Methylen-(6R,7R)-7-C(Z)-2-(2-Amino-4-thiazolyl)-2-(methoxyimino)-acetamido]-3-[[[5-(methoxycarbonyl)-1-[(DL)-α-[[(pivaloyloxy)-methoxy]carbonyl]benzyl]-1H-1,2,4-triazol-3-yl]thio]methyl]-8-oxo-5-thia-1-azabicyclo-[4.2.0]oct-2-en-2-carboxylat-pivalat] | > 25 | > 25 |  | > 6 | 5.5
